{"source": "patent US6583132B1", "about": "“Oxidant scavengers” (Duke University, priority 1993, dated 2003)", "key": {"J774 macrophages [1]": {"test_system": "J774 macrophages", "assay": "Mitochondrial respiration (MTT) in J774 macrophages", "format": "cell-based", "method": "(§1) Cell culture: J774 macrophages were cultured in DMEM medium, supplemented with L-glutamine (3.5 mmol/L) and 10% fetal calf serum. Cells were cultured in 96-well plates (200 μl medium/well) until confluence. To induce the inducible isoform of nitric oxide synthase (iNOS), fresh culture medium containing E. coli LPS (011:B4, 10 μg/ml) alone or in combination with murine γ-interferon (γ-IFN, 10 U/ml) was added in the presence or absence of the NOS inhibitor, the SOD mimetic of the combination of the two compounds for 24 h. Moreover, cells were exposed to the NO donor compounds S-nitroso-N-acetyl-DL-penicillamine (SNAP) (3 mM) and diethylamine:NO NONOate (DNO) (3 mM) for 24 h or to authentic peroxynitrite (1 mM) for 1 h). Nitride/nitrate concentration in the medium and mitochondrial respiration were then measured as described below.\nMeasurement of mitochondrial respiration: Cell respiration was assessed by the mitochondrial-dependent reduction of 3-(4,5-dimethylthiazol-2-yl)-2,5-diphenyltetrazolium bromide (MTT) to formazan. Cells in 96-well plates were incubated at 37° C. with MTT (0.2 mg/ml) for 1 hour. Culture medium was removed by aspiration and the cells were solubilized in DMSO (100 μl). The extent of reduction of MTT to formazan within cells was quantitated by the measurement of OD550. All measurements were corrected for the interference of MnTBAP at this wavelength."}, "[2]": {"assay": "Peroxynitrite-induced oxidation of dihydrorhodamine 123", "format": "biochemical", "details": "peroxynitrite 5 μM; 10 μM dihydrorhodamine 123; 10 min, 22° C.; read-out: concentration giving 50% inhibition of oxidation of dihydrorhodamine 123 to rhodamine 123", "method": "Measurement of peroxynitrite-induced oxidation of dihydrorhodamine 123: The peroxynitrite-dependent oxidation of dihydrorhodamine 123 to rhodamine 123, was measured based on the principles of the method described by Kooy et al, Free Radical Biol. Med. 16:149 (1994). Briefly, peroxynitrite at 5 μM was added into phosphate-buffered saline containing 10 μM dihydrorhodamine 123, in the absence of presence of MnTBAP (3-100 μM). After a 10 min incubation at 22° C., the fluorescence of rhodamine 123 was measured using a Perkin-Elmer fluorimeter (Model LS50B: Perkin-Elmer, Norwalk, Conn.) at an excitation wavelength of 500 mn, emission wavelength of 536 nm (slit widths 2.5 and 3.0 nm, respectively)."}, "[3]": {"test_system": "calf pulmonary artery endothelial cell cultures (CPA-47)", "assay": "Paraquat-induced injury of CPA-47 cells, LDH release", "format": "cell-based", "details": "varying concentrations; Paraquat 2 mM, 24 hours", "method": "Calf pulmonary artery endothelial cell cultures (CPA-47) were grown to confluence in Ham's F-12K medium with 10% fetal bovine serum at pH 7.4 and 37° C. Cells were then trypsinized and seeded at equal densities in 24 well plates and grown to 90% confluence. Cells were washed and pre-incubated for 1 hour with varying concentrations of ZnTBAP in MEM or MEM only. Paraquat (2 mM) was added and allowed to incubate for 24 hours. Cell injury was quantitated by measuring the release of cellular lactate dehydrogenase (LDH) into the medium."}, "J774 macrophages [4]": {"test_system": "J774 macrophages", "assay": "Nitrite/nitrate production in J774 macrophages", "format": "cell-based", "details": "for inhibition of LPS-induced nitrite/nitrate accumulation: LPS 10 μg/ml; for inhibition of nitrite/nitrate accumulation: LPS and IFN", "method": "as §1\nMeasurement of nitrite/nitrate production: Nitride/nitrate production, an indicator of NO synthesis, was measured in the supernatant. First, nitrate in the culture medium was reduced to nitrite by incubation with nitrate reductase (670 mU/ml) and NADPH (160 μM) at room temperature for 2 h. After 2 h, nitrite concentration in the samples were measured by the Griess reaction, by adding 100 μl of Griess reagent (1% sulfanilamide and 0.1% naphthylethylenediamide in 5% phosphoric acid) to 100 μl samples of conditioned medium. The optical density at 550 nm (OD550) was measured using a Spectramax 250 microplate reader (Molecular Devices, Sunnyvale, Calif.) Nitrate concentrations were calculated by comparison with OD550 of standard solutions of sodium nitrate prepared in culture medium. All measurements were corrected for the interference of MnTBAP at this wavelength."}, "[5]": {"assay": "Paraquat-induced lung injury, BALF analysis", "format": "in vivo, Mice", "details": "2.5 mg/ml nebulized 30 minutes twice daily for 2 days; paraquat 45 mg/kg ip; 48 hours", "method": "Mice were treated with either paraquat (PQ, 45 mg/kg, ip) or saline (10 ml/kg, ip) and exposed to MnTBAP (2.5 mg/ml, nebulized into a 2 L chamber at 2 L/min for 30 minutes twice daily for 2 days) or room air. Mice were killed 48 hours after start of treatment and lung injury was assessed by analysis of bronchoalveolar lavage fluid (BALF). BALF damage markers used were lactate dehydrogenase (LDH, as units/L), proteins concentration (as mg/dl), and percent of polymorphonuclear leukocytes (PMN)."}}}
{"substance": "Mn(III) tetrakis (4-benzoic acid)porphyrin [MnTBAP]", "values": [{"measurement": "suppression of mitochondrial respiration by peroxynitrite", "setting": "J774 macrophages [1]; 1 mM peroxynitrite, 1 h", "result": "partially and dose dependently prevented"}, {"measurement": "immunostimulation-induced suppression of mitochondrial respiration", "setting": "J774 macrophages [1]; LPS-treated and LPS and IFN-treated cells, 24 h", "result": "dose-dependent, partial restoration"}, {"measurement": "suppression of mitochondrial respiration by NO donors SNAP and DNO", "setting": "J774 macrophages [1]; SNAP, DNO 3 mM, 24 h", "result": "partially and dose dependently prevented"}, {"measurement": "IC50", "setting": "[2]", "result": 30, "unit": "µM"}, {"measurement": "paraquat-induced LDH release / injury", "setting": "[3]", "result": "decreases paraquat-induced LDH release in a dose-dependent manner"}, {"measurement": "nitrite/nitrate formation in the presence of L-NMA", "setting": "J774 macrophages [4]", "result": "no additional effect"}, {"measurement": "inhibition of LPS-induced nitrite/nitrate accumulation", "setting": "J774 macrophages [4]; 100 μM", "result": 63, "unit": "%"}, {"measurement": "inhibition of nitrite/nitrate accumulation", "setting": "J774 macrophages [4]; 100 μM", "result": 25, "unit": "%"}, {"measurement": "nitrite/nitrate accumulation in response to DNO", "setting": "J774 macrophages [4]; 300 μM", "result": "slight inhibition"}, {"measurement": "nitrite/nitrate accumulation in response to SNAP", "setting": "J774 macrophages [4]; 300 μM", "result": "did not inhibit"}, {"measurement": "inhibition of LPS-induced nitrite/nitrate accumulation", "setting": "J774 macrophages [4]; 300 μM", "result": 86, "unit": "%"}, {"measurement": "inhibition of nitrite/nitrate accumulation", "setting": "J774 macrophages [4]; 300 μM", "result": 61, "unit": "%"}, {"measurement": "change of inhibition of nitrite/nitrate accumulation when applied 6 h after LPS", "setting": "J774 macrophages [4]; LPS-stimulated macrophages", "result": "more than 50%"}, {"measurement": "protection against paraquat-induced lung injury", "setting": "[5]", "result": "partial protection"}]}
